Measurements published in patent US20240382540A1, “MODULATION OF FUSOBACTERIUM VARIUM TO PREVENT BOVINE LIVER ABSCESSES AND IMPROVE CATTLE PERFORMANCE” (priority 2023, published 2024).

Legend:
F. varium [1] = experiment: Rumen fluid enrichment cultures with lactate; assay type: cell-based, Fusobacterium varium; conditions: lactate present in rumen fluid enrichment cultures
Source text: Microbial lactate utilization is linked to several pathogenic mechanisms. […] Currently it is unknown if some or all cattle-associated F. varium strains are able to derive energy from lactate. […] Thus, it is possible that the acquisition of this or a similar mobile genetic element has provided some bovine F. varium strains with the capability of utilizing lactate as a source of energy and a means for avoiding host immunity.
This identification was based on 16S rRNA sequencing using close to the full-length gene (27F/1492R primers), a reliable method for determining bacterial species (FIG. 1).

F. varium [2] = experiment: Antimicrobial susceptibility testing: growth of F. varium strains exposed to tylosin and monensin; assay type: cell-based, Fusobacterium varium; conditions: for growth inhibition: all tested F. varium strains
Source text: (§1) In an effort to understand the differential response of Fusobacterium species to antimicrobial agents commonly used in livestock, we examined the effect of tylosin and monensin on the growth of reference strains and newly isolated strains of F. varium and F. necrophorum.
(§2) To set up the experiment, we exposed three strains each of F. varium and F. necrophorum to tylosin and monensin at concentrations relevant to ruminal environments.

F. necrophorum = experiment: Antimicrobial susceptibility testing: growth of F. necrophorum strains exposed to tylosin and monensin; assay type: cell-based, Fusobacterium necrophorum; conditions: for decline/reduction in growth: F. necrophorum strain 8L1; for growth inhibition: all three F. necrophorum strains tested
Source text: as §1, §2
Strains A and 8L1 were most affected, with both displaying a 98% reduction in growth. […] In this context, growth reductions of 44-66% were observed (P<0.05).

[3] = test system: Fusobacterium necrophorum; conditions: grain-fed cattle; antibiotic as component of cattle feed; cited from earlier work
[4] = concentrations relevant to ruminal environments

Molecule | growth inhibition (F. varium [2]; [4]) | decline/reduction in growth (F. necrophorum) | growth inhibition (F. necrophorum) | ruminal concentrations of Fusobacterium necrophorum [3] | further results
CC(O)C(=O)O (stereo not drawn) [lactate] | – | – | – | – | enrichment of native F. varium strains (F. varium [1]): up to 35,000 fold
CC[C@@]1([C@@H]2O[C@@H]([C@H]3O[C@@](O)(CO)[C@H](C)C[C@@H]3C)C[C@@H]2C)CC[C@H]([C@]2(C)CC[C@]3(C[C@H](O)[C@@H](C)[C@@H]([C@@H](C)[C@@H](OC)[C@H](C)C(=O)O)O3)O2)O1 [monensin] | did not show substantial growth inhibition | 98% | more than 87% | – | decrease in growth (F. varium [2]; F. varium bovine isolates, concentrations relevant to ruminal environments): 15%; growth response (F. varium [2]; reference strain F. varium NCTC 10560): no significant response; reduction in growth (F. necrophorum; F. necrophorum strain A): 98%; growth reduction (F. necrophorum; F. necrophorum, medium containing only casein pancreatic digest and yeast extract as carbon sources): 44-66%
CC[C@H]1OC(=O)C[C@@H](O)[C@H](C)[C@@H](O[C@@H]2O[C@H](C)[C@@H](O[C@H]3C[C@@](C)(O)[C@@H](O)[C@H](C)O3)[C@H](N(C)C)[C@H]2O)[C@@H](CC=O)C[C@@H](C)C(=O)/C=C/C(C)=C/[C@@H]1CO[C@@H]1O[C@H](C)[C@@H](O)[C@@H](OC)[C@H]1OC [tylosin] | none of the tested strains exhibited substantial growth inhibition | 92% | over 67% | significantly reduced | decline in growth (F. varium [2]; strain F. varium DNLA-8, concentrations relevant to ruminal environments): 13%; decline in growth (F. necrophorum; F. necrophorum strain FNA): 94%
virginiamycin | – | – | – | significantly reduced | –
